Patent publication US20120269739A1, “COMPOSITION, USE, AND PRESERVATION METHOD” (L'OREAL, priority 2009, published 2012)
Like-named read-outs stand apart in the source and are kept apart here.

Columns and labels:
[1] = cited from earlier work
[2] = tested on: Aspergillus niger (An) ATCC 6275; experiment: Challenge Test (artificial contamination) of cosmetic formula; type: cell-based; details: 22° C., chlorhexidine digluconate 0.3%, gingerone 2%
Source text: (§1) 5 pure microorganism cultures are used.

[3] = tested on: Candida albicans (Ca) ATCC 10231; experiment: as above; type: cell-based; details: 22° C., chlorhexidine digluconate 0.3%, gingerone 2%; for Log reduction number after 7 days of contact, relative to the control, C. albicans: 1st formula O/W emulsion, Amt weight %: phenoxyethanol 1%, sodium benzoate 0.6%; for Log reduction number after 7 days of contact, relative to the control, Candida albicans: Amt weight %: sodium benzoate 0.6%
Source text: as §1

[4] = tested on: Enterococcus faecalis (Ef) ATCC 33186; experiment: as above; type: cell-based; details: 22° C., chlorhexidine digluconate 0.3%, gingerone 2%
Source text: as §1

[5] = tested on: Escherichia coli (Ec) ATCC 8739; experiment: as above; type: cell-based; details: 22° C., chlorhexidine digluconate 0.3%, gingerone 2%
Source text: as §1

[6] = tested on: Enterococcus faecalis (ATCC 33186); experiment: Action kinetics in broth; type: cell-based; details: TS broth pH 5.2±0.3, 35° C., gingerone 2%, sodium benzoate 3.3%, chlorhexidine digluconate 2.2%
Description: (§2) The object of this example is to distinguish a compound according to the invention (gingerone) from the preserving agents conventionally used for protecting cosmetic formulations against microbial contamination, as regards the action kinetics.
(§3) The solutions are prepared in Trypto-casein-soya (TS) broth for the bacteria and in Sabouraud broth for the yeast. These solutions are adjusted to pH 5.2±0.3.
(§4) For each microbial solution, a growth control consisting of the appropriate culture medium alone is prepared.
(§5) The solutions in TS broth (36 ml) are inoculated separately with each of the bacteria (4 ml of microbial suspension) to a final content of 10^6 cfu/ml of mixture.
(§6) The inoculated samples are then placed in an incubator-agitator at 35° C.±2° C. Samples are taken after 6 hours, 24 hours, 48 hours, 72 hours and 7 days. Decimal dilutions are then prepared in Eugon LT100 broth. These dilutions are left for 30 minutes±15 minutes at 25° C. in order to neutralize the preserving agents, and are then double-seeded on the surface of Petri dishes containing Eugon LT100 agar.
(§7) The Petri dishes are then incubated in an oven at 35° C.±2° C. for a variable time depending on the strain concerned: • 48 hours; S. aureus; • 5 days: E. faecalis and C. albicans.
(§8) The results are expressed for each solution, each strain and each contact time as the number of cfu/ml of stock solution.

[7] = tested on: Staphylococcus aureus (ATCC 6538); experiment: Action kinetics in broth; type: cell-based; details: TS broth pH 5.2±0.3, 35° C., gingerone 2%, sodium benzoate 3.3%, chlorhexidine digluconate 2.2%
Description: as §2, §3, §4, §5, §6, §7, §8

[8] = tested on: Candida albicans (ATCC 10231); experiment: Action kinetics in broth; type: cell-based; details: Sabouraud broth pH 5.2±0.3, 35° C., gingerone 2%, sodium benzoate 3.3%, chlorhexidine digluconate 2.2%
Description: as §2, §3, §4
The solutions in Sabouraud broth (36 ml) are inoculated with the yeast (4 ml of suspension) to a final content of 10^6 cfu/ml.
as §6, §7, §8

[9] = tested on: Pseudomonas aeruginosa (Pa) ATCC 19429; experiment: Challenge Test (artificial contamination) of cosmetic formula; details: 22° C., chlorhexidine digluconate 0.3%, gingerone 2%
Description: The antimicrobial efficacy of a compound of formula (I) was evaluated via the Challenge Test or artificial contamination method.
The method of the challenge test consists of an artificial contamination of the sample with collection microbial strains (bacteria, yeasts and moulds) and evaluation of the number of revivable microorganisms seven days after the inoculation.
The gram-negative bacteria (Escherichia coli and Pseudomonas aeruginosa), gram-positive bacteria (Enterococcus faecalis), yeast (Candida albicans) and mould (Aspergillus niger) are seeded in the subculturing medium, respectively, the day before the inoculation for the bacteria and the yeast, and five days before the inoculation for the mould.
After homogenizing the microbial suspension, 0.2 ml of inoculum is introduced into each pill bottle (the suspensions are used pure: between 1×10^8 and 3×10^8 cfu per ml) and the microbial suspension in the 20 g of product (=cosmetic formula) is homogenized thoroughly using a spatula.
The content of microorganisms present in the product corresponds after homogenization to a concentration of 10^6 microorganisms per gram of product, i.e. inoculation to 1% of an inoculum containing 10^8 microorganisms per ml.
After 7 days of contact time between the microorganisms and the product at 22° C.±2° C. and in darkness, decimal dilutions are performed and the number of revivable microorganisms remaining in the product is counted.

[10] = 1st formula O/W emulsion, Amt weight %: phenoxyethanol 1%, sodium benzoate 0.6%
[11] = 2nd formula lotion (pH 7 ± 0.2), Amt weight %: sodium benzoate 0.6%, phenoxyethanol 1%
[12] = 3rd formula O/W emulsion, Amt weight %: sodium benzoate 0.6%
[13] = 2nd formula lotion (pH 7 ± 0.2), phenoxyethanol 1%
[14] = contact time 0 hours, first series
[15] = contact time 0 hours, second series of Table 1
[16] = contact time 6 hours, first series
[17] = contact time 6 hours, second series of Table 1
[18] = contact time 24 hours, first series
[19] = contact time 24 hours, second series of Table 1
[20] = contact time 48 hours, first series
[21] = contact time 48 hours, second series of Table 1
[22] = contact time 72 hours, first series
[23] = contact time 72 hours, second series of Table 1
[24] = contact time 168 hours, first series
[25] = contact time 168 hours, second series of Table 1

Structure (SMILES) | Log reduction number after 7 days of contact, relative to the control, A. niger [2, 10] | Log reduction number after 7 days of contact, relative to the control, A. niger [2, 11] | Log reduction number after 7 days of contact, relative to the control, A. niger [2, 12] | Log reduction number after 7 days of contact, relative to the control, C. albicans [3] | Log reduction number after 7 days of contact, relative to the control, Candida albicans [3, 13] | Log reduction number after 7 days of contact, relative to the control, Candida albicans ([3]; 3rd formula O/W emulsion) | Log reduction number after 7 days of contact, relative to the control, E. faecalis [4, 10] | Log reduction number after 7 days of contact, relative to the control, E. faecalis [4, 11] | Log reduction number after 7 days of contact, relative to the control, E. faecalis [4, 12] | Log reduction number after 7 days of contact, relative to the control, E. coli [5, 10] | Log reduction number after 7 days of contact, relative to the control, E. coli [5, 11] | Log reduction number after 7 days of contact, relative to the control, E. coli [5, 12] | Number of cfu counted after strain/solution contact time, Enterococcus faecalis ([6]; contact time 0 hours) | Number of cfu counted after strain/solution contact time, Enterococcus faecalis ([6]; contact time 6 hours) | Number of cfu counted after strain/solution contact time, Enterococcus faecalis ([6]; contact time 24 hours) | Number of cfu counted after strain/solution contact time, Enterococcus faecalis ([6]; contact time 48 hours) | Number of cfu counted after strain/solution contact time, Enterococcus faecalis ([6]; contact time 72 hours) | Number of cfu counted after strain/solution contact time, Enterococcus faecalis ([6]; contact time 168 hours) | Number of cfu counted after strain/solution contact time, Staphylococcus aureus [7, 14] | Number of cfu counted after strain/solution contact time, Staphylococcus aureus [7, 15] | other results
COc1cc(C)ccc1O [2-methoxy-4-methylphenol] |  |  |  |  |  |  |  |  |  |  |  |  |  |  |  |  |  |  |  |  | pKa ([1]; value given in the literature): 10.27
N=C(NCCCCCCNC(=N)NC(=N)Nc1ccc(Cl)cc1)NC(=N)Nc1ccc(Cl)cc1.O=C(O)[C@H](O)[C@@H](O)[C@H](O)[C@H](O)CO.O=C(O)[C@H](O)[C@@H](O)[C@H](O)[C@H](O)CO [Chlorhexidine digluconate] | 0.4 Log | 0.4 Log | 2.3 Log | 0.3 Log | 3 Log | >4 Log | 0.9 Log | 1.3 Log | 1.8 Log | >4 Log | 0.8 Log | >4 Log | 2.5 × 10^6 cfu/ml | <10 cfu/ml | <10 cfu/ml | <10 cfu/ml | <10 cfu/ml | <10 cfu/ml | 1.7 × 10^6 cfu/ml | 2.5 × 10^6 cfu/ml | Number of cfu counted after strain/solution contact time, Staphylococcus aureus [7, 16]: <10 cfu/ml; Number of cfu counted after strain/solution contact time, Staphylococcus aureus [7, 17]: <10 cfu/ml; Number of cfu counted after strain/solution contact time, Staphylococcus aureus [7, 18]: <10 cfu/ml; Number of cfu counted after strain/solution contact time, Staphylococcus aureus [7, 19]: <10 cfu/ml; Number of cfu counted after strain/solution contact time, Staphylococcus aureus [7, 20]: <10 cfu/ml; Number of cfu counted after strain/solution contact time, Staphylococcus aureus [7, 21]: <10 cfu/ml; Number of cfu counted after strain/solution contact time, Staphylococcus aureus [7, 22]: <10 cfu/ml; Number of cfu counted after strain/solution contact time, Staphylococcus aureus [7, 23]: <10 cfu/ml; Number of cfu counted after strain/solution contact time, Staphylococcus aureus [7, 24]: <10 cfu/ml; Number of cfu counted after strain/solution contact time, Staphylococcus aureus [7, 25]: <10 cfu/ml; Number of cfu counted after strain/solution contact time, Candida albicans ([8]; contact time 0 hours): 2.9 × 10^6 cfu/ml; Number of cfu counted after strain/solution contact time, Candida albicans ([8]; contact time 6 hours): <10 cfu/ml; Number of cfu counted after strain/solution contact time, Candida albicans ([8]; contact time 24 hours): <10 cfu/ml; Number of cfu counted after strain/solution contact time, Candida albicans ([8]; contact time 48 hours): <10 cfu/ml; Number of cfu counted after strain/solution contact time, Candida albicans ([8]; contact time 72 hours): <10 cfu/ml; Number of cfu counted after strain/solution contact time, Candida albicans ([8]; contact time 168 hours): <10 cfu/ml; Log reduction number after 7 days of contact, relative to the control, P. aeruginosa [9, 10]: 0.3 Log; Log reduction number after 7 days of contact, relative to the control, P. aeruginosa [9, 11]: 0.5 Log; Log reduction number after 7 days of contact, relative to the control, P. aeruginosa [9, 12]: 0 Log
O=C([O-])c1ccccc1.[Na+] [Sodium benzoate] | 0.5 Log | <0.5 Log | 3 Log | 0 Log | <0.5 Log | >4 Log | 0.6 Log | 1.4 Log | >4 Log | 0.3 Log | 0.7 Log | >4 Log | 2.5 × 10^6 cfu/ml | 4.4 × 10^5 cfu/ml | 7.0 × 10^2 cfu/ml | <10 cfu/ml | <10 cfu/ml | <10 cfu/ml | 1.7 × 10^6 cfu/ml | 2.5 × 10^6 cfu/ml | Number of cfu counted after strain/solution contact time, Staphylococcus aureus [7, 16]: <10 cfu/ml; Number of cfu counted after strain/solution contact time, Staphylococcus aureus [7, 17]: <10 cfu/ml; Number of cfu counted after strain/solution contact time, Staphylococcus aureus [7, 18]: <10 cfu/ml; Number of cfu counted after strain/solution contact time, Staphylococcus aureus [7, 19]: <10 cfu/ml; Number of cfu counted after strain/solution contact time, Staphylococcus aureus [7, 20]: <10 cfu/ml; Number of cfu counted after strain/solution contact time, Staphylococcus aureus [7, 21]: <10 cfu/ml; Number of cfu counted after strain/solution contact time, Staphylococcus aureus [7, 22]: <10 cfu/ml; Number of cfu counted after strain/solution contact time, Staphylococcus aureus [7, 23]: <10 cfu/ml; Number of cfu counted after strain/solution contact time, Staphylococcus aureus [7, 24]: <10 cfu/ml; Number of cfu counted after strain/solution contact time, Staphylococcus aureus [7, 25]: <10 cfu/ml; Number of cfu counted after strain/solution contact time, Candida albicans ([8]; contact time 0 hours): 2.9 × 10^6 cfu/ml; Number of cfu counted after strain/solution contact time, Candida albicans ([8]; contact time 6 hours): <10 cfu/ml; Number of cfu counted after strain/solution contact time, Candida albicans ([8]; contact time 24 hours): <10 cfu/ml; Number of cfu counted after strain/solution contact time, Candida albicans ([8]; contact time 48 hours): <10 cfu/ml; Number of cfu counted after strain/solution contact time, Candida albicans ([8]; contact time 72 hours): <10 cfu/ml; Number of cfu counted after strain/solution contact time, Candida albicans ([8]; contact time 168 hours): <10 cfu/ml
[H]/N=C(\N/C(=N/[H])NCCCCCCNC(=N)NC(=N)Nc1ccc(Cl)cc1)Nc1ccc(Cl)cc1 [chlorhexidine] |  |  |  |  |  |  |  |  |  |  |  |  |  |  |  |  |  |  |  |  | pKa ([1]; stated in the conclusion of Example 2, no source): 10.3
